In paper PMC12040169 (PLOS Biology, 2025):

Assay: in vitro
Settings: human, hela cells, % viability

Structure (SMILES) | viability at 28.5 h, 10 µM [%]
CCCc1c(C(=O)NCC(C)(C)CN(C)C)cnn1-c1cc(Cl)cc(Cl)c1 [CBK107381] | 94.3
Cn1ccnc1C1(O)CC2CCC(C1)N2C(=O)c1ccco1 (stereo not drawn) [CBK284179] | 81.7
c1ccc([C@@H]2CN(Cc3cccnc3)C[C@H]2c2cc[nH]n2)cc1 [CBK285160] | 88.9
CCOc1ccccc1Cn1c2ccccc2c2nc3ccccc3nc21 [CBK266323] | 101
CC(C)(C)NS(=O)(=O)c1ccc(NC(=O)COc2ccc3ccccc3c2Br)cc1 [CBK267015] | 96.5
O=C(CNC1CCN(Cc2ccccc2)CC1)Nc1ccc(Cl)cc1C(=O)c1ccccc1Cl [CBK074770] | 107
CCn1c(CN2CCN(Cc3ccc4c(c3)OCO4)CC2)n[nH]c1=S [CBK013828] | 105
Cn1cnnc1SCCNC(=O)N1CCc2sccc2C1 [CBK307385] | 97.3
COc1ccc(C(NC(=O)C2CCN(C(=O)OCc3ccccc3)CC2)c2ccccc2C)cn1 (stereo not drawn) [CBK059726] | 91.4
CN1CCN(C(=O)c2cccc(-c3nc(-c4ccc(C#N)cc4)cnc3N)c2)CC1 [CBK064144] | 100
CC(C)CNc1nc2c(c(=O)n(Cc3ccccc3)c(=O)n2C)n1Cc1ccccc1 [CBK293946] | 81.7
Cc1ccnc2nc(C(=O)OC(C)C(=O)N3CCCCCC3)nn12 (stereo not drawn) [CBK306155] | 102
Cc1ccc(NC(=O)c2cnc3ccccc3n2)c(C)n1 [CBK200218] | 97.7
O=C1/C(=C/NNc2nc3ccccc3s2)Sc2ccccc21 [CBK261627] | 96.4
Cc1cccc(C(=O)N2CCN(S(=O)(=O)c3sc(C(=O)O)c(C)c3C(=O)O)CC2)c1 [CBK297124] | 91.4
C#Cc1cn([C@H]2C[C@@H](O)[C@@H](CO)O2)c(=O)[nH]c1=O [CBK201207] | 87.8
O=C(NCC1COc2ccccc2O1)C1(c2ccccc2)CCCC1 (stereo not drawn) [CBK149524] | 93.8
O/N=C(\Cn1cncn1)c1ccc(Cl)cc1Cl [CBK261085] | 93.5
Cc1ccc(C(=O)O)cc1N1C(=O)c2ccc(S(=O)(=O)c3ccc(C(=O)O)cc3)cc2C1=O [CBK262747] | 96.1
Cc1cccc(NC(=O)c2cnc3scc(C)n3c2=O)c1 [CBK287453] | 112
OC(CNCCc1c[nH]c2ccccc12)COc1cccc2c1CCCC2 (stereo not drawn) [CBK003831] | 93.9
CN1CCC(NC(=O)c2cccc(NC(=O)C3CCCCC3)c2)C1=O (stereo not drawn) [CBK306228] | 81.3

Structure (SMILES) | viability at 28.5 h, 10 µM [%]
CCn1ncc(S(=O)(=O)Nc2ccc3c(ccn3C)c2)c1C [CBK282730] | 102
CC(C)(CO)NC(=O)c1cc(S(=O)(=O)N2CCOCC2)ccc1Cl [CBK269748] | 94
Cn1c(COc2cncc(Cl)n2)cc2ccccc21 [CBK176002] | 89.9
COc1cccc(C(NC(=O)C2COc3c(cccc3OC)C2)c2ccccc2)c1 (stereo not drawn) [CBK285736] | 94.7
CC(CN1CCOCC1)NS(=O)(=O)c1cccc(C(=O)N2CCCC2)c1 (stereo not drawn) [CBK307053] | 107
Cc1cn(C(C)(C)C(=O)N2CCOCC2)nc1-c1ccccc1Cl [CBK005206] | 85.9
CC(C)(C)c1nc(-c2ccccc2)c2ccccn12 [CBK149256] | 101
Cc1sc2nc(SCc3nc4ccccc4[nH]3)n(-c3ccc(Cl)c(Cl)c3)c(=O)c2c1C [CBK264594] | 102
O=C(OCc1nc2ccccc2[nH]1)N1CCOCC1 [CBK200146] | 109
Cc1cccc(=O)n1CCCNc1cc(C2CCOC2)ncn1 (stereo not drawn) [CBK306992] | 84.4
COCCn1c(CO)nnc1[C@H]1C[C@@H](NC(=O)c2ncc(F)cc2F)C1 [CBK307458] | 106
O=C(C1C2CCCCC21)N1CCC(Oc2ccc(F)cc2)CC1 (stereo not drawn) [CBK282065] | 92.1
CN(C)CCOC(=O)c1ccc2[nH]c3c(c2c1)CSCC3 [CBK009731C] | 95.8
Cn1ncc(N2CCC(CNC(=O)COc3ccccc3)C2)cc1=O (stereo not drawn) [CBK306810] | 92.3
Cc1ccn2cc(-c3ccc4c(c3)CCN4S(C)(=O)=O)nc2c1 [CBK285221] | 88.3
COc1ccc(OC)c(C(=O)N2CCNC(=O)C2Cc2ccccc2-c2ccc(F)cc2)c1 (stereo not drawn) [CBK285829] | 105
Cc1ccc(C(=O)Nc2cccc(-c3cn4cccnc4n3)c2)cc1 [CBK287503] | 93.8
CC(C)(C)CCNCCN1CCOCC1 [CBK001895] | 92.2
O=C(CCn1c(-c2ccncc2)cc2cccnc21)N1CCCC1 [CBK282151] | 96.7
N/C(=N/OCC(=O)Nc1cccc2ccccc12)c1nonc1N [CBK265234] | 90.6
O=C(CSc1ncnc2c1oc1ccccc12)Nc1ccccc1 [CBK057994] | 93.4
CC(C)[C@@H](CO)Nc1cncc(-c2ccc(F)cc2F)n1 [CBK065875] | 98.5

Structure (SMILES) | viability at 28.5 h, 10 µM [%]
CCN(Cc1ccccc1)C(=O)NCCCN1CCN(C)CC1 [CBK155212] | 102
CC(C)(C)OC(=O)CN1C(=O)N[C@@H]2CCCC[C@@H]21 [CBK003423] | 84.8
Nc1[nH]ncc1-c1nnc(Nc2ccc3c(c2)OCO3)o1 [CBK288537] | 85.1
COC(=O)/C=C/c1cccc(-c2cnc(N)c(-c3ccc(O)cc3)n2)c1 [CBK125689] | 83.7
CC(C)Nc1cncc(Sc2ccccc2O)n1 [CBK091438] | 88
CC(C)[C@H]1N=C2C=C(C(C)(C)C)ON2[C@H]2[C@H](O)[C@H](O)C[C@H]21 [CBK303234] | 90.1
O=C(Cc1ccccc1)NN1C(=O)/C(=C/c2ccccc2C(=O)O)SC1=S [CBK262975] | 104
COc1cncc(-c2cc(Nc3ccc(NS(=O)(=O)c4ccc(C)cc4)cc3)ncn2)c1 [CBK090988] | 94.1
Cc1ccc(S(=O)(=O)Nc2nc(C)c(C(=O)N3CCN(C)CC3)s2)cc1 [CBK045812] | 88.3
COc1ccc(-c2nc3cc(NC(=O)COc4ccccc4[N+](=O)[O-])ccc3o2)cc1Cl [CBK263412] | 99.2
CC(C)(C)OC(=O)N1CCC(N2CCc3cc(-c4ccc(S(C)(=O)=O)cc4)ccc3C2)CC1 [CBK165796] | 82.7
CCC(CC)C(=O)N1C[C@H]2CCc3cn(CCNC(C)=O)nc3[C@H]2C1 [CBK282183] | 104
CCOc1ccc(S(=O)(=O)N2CCCN(Cc3c[nH]c(C)n3)CC2)c2cccnc12 [CBK063031] | 101
CC(=O)Nc1ccc(-c2ccc(COC3CCN(C(=O)c4ccc(Cl)c(Cl)c4)CC3)cc2)cc1 [CBK149215] | 89.3
Cc1cccc(C2(O)CCN(CC(O)c3ccc4c(c3)CCC4)CC2)c1 (stereo not drawn) [CBK286330] | 95.3
FC1(F)Oc2ccc(Nc3cncc(-c4cccs4)n3)cc2OC1(F)F [CBK065727] | 110
Nc1ccc(-c2nnc(SCC(=O)Nc3ccc(Br)cc3F)n2-c2ccccc2)cc1 [CBK267175] | 98.8
CC1CCN(S(=O)(=O)c2ccc(NC(=O)c3cccc(NC(=O)C(C)C)c3)cc2)CC1 [CBK265653] | 88
O=C(NC1CCN(Cc2cc(F)cc(F)c2)CC1)c1cn2ccsc2n1 [CBK306970] | 80
O=C(c1cnc(-c2ccccc2)c(-c2cccnc2)c1)N1CCC(S(=O)(=O)c2ccccc2)C1 (stereo not drawn) [CBK036685] | 103
COc1ccc(Cc2nnc(SCC(=O)Nc3ccc(Br)c(C)c3)n2C)cc1 [CBK265816] | 83.9
CC(=O)Nc1ccc(CN2C[C@@H]3OCC(=O)N(C)[C@@H]3C2)cc1 [CBK289240] | 85.5

Structure (SMILES) | viability at 28.5 h, 10 µM [%]
Cc1ccc(S(=O)(=O)N(CCO)CC(O)Cn2c3ccc(Cl)cc3c3cc(Cl)ccc32)cc1 (stereo not drawn) [CBK263392] | 97.6
Nc1ccc(Oc2ccc3nc4c5cc(I)ccc5c5ccc(I)cc5c4nc3c2)cc1 [CBK261978] | 87.6
COC(=O)c1sccc1NS(=O)(=O)c1ccccc1C(F)(F)F [CBK034717] | 108
O=C(O)CCC(=O)Nc1ccc(NC(=O)c2ccccc2)c(Cl)c1 [CBK263478] | 86.8
COc1ccc(C(=O)N2CCC3(CCN(C(=O)Cc4cc(C)no4)C3)C2)cc1OC (stereo not drawn) [CBK131784] | 106
Fc1ccc(OCc2nn3cnnc3s2)cc1 [CBK287288] | 102
CC1CCCN(C(=O)Cn2ncn3c(cc4ccsc43)c2=O)C1 (stereo not drawn) [CBK284245] | 84.5
Cc1ccc2c(N)c(C(=O)Nc3ccc(C#N)cc3)sc2n1 [CBK115348] | 91.3
CC(C)C(=O)Nc1nnc(-c2ccc(Cl)cc2)o1 [CBK287593] | 94
COCc1cn(C2CCN(c3cc(-n4cc(C)cn4)ncn3)CC2)nn1 [CBK307388] | 92.9
C=C(C)CNc1ccccc1C(=O)OC [CBK003656C] | 89.1
CC(=O)Nc1ccc(C(=O)NCc2ccc(OCC(F)(F)F)cc2)cc1 [CBK305732] | 98
CC1=C(C)CC(C(=O)Nc2ccc(C(=O)NCc3cccnc3)cc2)C(C(=O)O)C1 (stereo not drawn) [CBK286567] | 78.8
O=C(O)C(Cc1ccccc1)NS(=O)(=O)c1ccc(I)cc1 (stereo not drawn) [CBK268807] | 110
N#Cc1ccc(CSc2cccc(F)c2)cc1 [CBK002918] | 109
CCn1cc(C(=O)N[C@H](C(=O)O)C(C)C)c(=O)c2cc3c(cc21)OCO3 [CBK286786] | 110
Cc1ccc2c(c1)nc(CNC(=O)NCCCO)n2C [CBK306174] | 86.1
CCCC(=O)Nc1ccccc1OC1CCNCC1 [CBK045902T] | 98
Cc1cc(OC(F)(F)F)ccc1S(=O)(=O)Nc1nc(CC(=O)O)cs1 [CBK000575] | 87.8

Same assay, conditions: human, hela cells, % viability, bulk resorufin, single well

Structure (SMILES) | viability at 28.5 h, 10 µM [%]
COC(=O)c1ccc(N2C(=O)NC(=O)/C(=C\c3ccccc3OCC(=O)O)C2=O)cc1 [CBK265459] | 84.7
Cc1ccc(-c2oncc2C(=O)N2CCC(C#N)(c3ccccc3)CC2)cc1 [CBK149179] | 95.7
